# Measurements published in US11814341B2, “Non-peptidic cell-penetrating motifs” (Ohio State Innovation Foundation, priority 2018, dated 2023).
# Experiments:
# HeLa cells [1] = test: MTT viability assay, anti-cancer activity of Hsp90 inhibitors; assay type: cell-based; details: 24 h
# HeLa cells [2] = test: JC-10 mitochondrial membrane potential assay; details: 20 μM, 24 h; above the normal value
# Experimental: Procedure: Mitochondria membrane potential assay. Experiments were carried out by using JC-10 Mitochondrial Membrane Potential Assay kit (Abcam, ab112134) according to the manufacturer's manual. Briefly, HeLa cells (2×10^4 cells/well) were seeded in a 96-well plate (black wall clear bottom) in 90 μL of DMEM containing 10% FBS and 1% penicillin/streptomycin and allowed to attach overnight. […] Without washing, cells were treated with 50 μL of a JC-10 dye solution (30 μM in buffer A) for 60 min. Fifty μL of buffer B was added and the fluorescence intensities at Ex/Em=490/520 nm and 540/590 nm were recorded on a microplate reader (Infinite M1000Pro).
# CPM1-3 was next tested for a potential effect on mitochondrial membrane potential, a key indicator of cell health or injury. HeLa cells untreated or treated with CPM were labeled with JC-10, a dye molecule which emits green fluorescence inside the cytosol but red fluorescence inside the mitochondria. The ratio of green/red fluorescence (F520/F590) provides an indicator of the mitochondrial membrane potential.
Molecule,maximum reduction in HeLa cell viability (HeLa cells [1]; 0-10 μM) [%],inhibitor concentration at which maximal inhibition was reached (HeLa cells [1]) [µM],increase in the F520/F590 ratio (HeLa cells [2])
"COC1=C2C[C@@H](C)C[C@H](OC)[C@H](O)[C@@H](C)/C=C(\C)[C@H](OC(N)=O)[C@@H](OC)/C=C\C=C(/C)C(=O)NC(=CC1=O)C2=O [GA, geldanamycin]",~40,0.3,–
p-trifluoromethoxy carbonyl cyanide phenyl hydrazone [FCCP],–,–,up to 7 fold
